US9682940B2, “Indazole derivatives useful as CB-1 inverse agonists” (Janssen Pharmaceutica NV, priority 2015, dated 2017)

Tests used:
[1] = biological target: Human CB1R (Cannabanoid receptor 1) (Homo sapiens (Human), UniProt P21554); assay: CB-1 in vitro cAMP (HTRF) assay in HEK-293 cells; format: cell-based; conditions: HEK-293 cells stably transfected with human CB1R, 250 nM Forskolin, mean where tested more than once, read-out: CB-1 (HEK_cAMP) EC50
Procedure, shortened: (§1)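 HEK-293 cells stably expressing human CB1 or CB2 plated overnight, then tested in HBSS/5 mM HEPES/0.1% BSA with 0.5 mM IBMX and forskolin (1.5 μM working dilution). Intracellular cAMP quantified by competitive HTRF immunoassay (d2-cAMP, cryptate anti-cAMP) against a cAMP standard curve; compounds as 1/3 serial dilutions from 10 mM DMSO stocks.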

[2] = biological target: Human CB2R (Cannabanoid receptor 2) (Homo sapiens (Human), UniProt P34972); assay: CB-2 in vitro cAMP (HTRF) assay in HEK-293 cells; format: cell-based; conditions: HEK-293 cells stably transfected with human CB2R, 250 nM Forskolin, mean where tested more than once, read-out: CB-2 (HEK_cAMP) EC50
Chain of Human CB2R (Cannabanoid receptor 2) (P34972 whole entry): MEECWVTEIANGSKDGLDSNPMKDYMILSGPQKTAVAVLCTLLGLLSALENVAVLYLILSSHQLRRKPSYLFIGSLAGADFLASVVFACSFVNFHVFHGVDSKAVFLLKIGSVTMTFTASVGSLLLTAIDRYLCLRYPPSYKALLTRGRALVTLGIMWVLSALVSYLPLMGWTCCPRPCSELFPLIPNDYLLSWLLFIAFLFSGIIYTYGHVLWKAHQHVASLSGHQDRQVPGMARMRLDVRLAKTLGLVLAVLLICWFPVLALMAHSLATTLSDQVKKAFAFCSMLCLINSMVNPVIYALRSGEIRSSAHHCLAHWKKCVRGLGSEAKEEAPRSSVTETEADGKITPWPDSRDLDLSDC
Procedure, shortened: as §1

Chain of Human CB1R (Cannabanoid receptor 1) (P21554 whole entry): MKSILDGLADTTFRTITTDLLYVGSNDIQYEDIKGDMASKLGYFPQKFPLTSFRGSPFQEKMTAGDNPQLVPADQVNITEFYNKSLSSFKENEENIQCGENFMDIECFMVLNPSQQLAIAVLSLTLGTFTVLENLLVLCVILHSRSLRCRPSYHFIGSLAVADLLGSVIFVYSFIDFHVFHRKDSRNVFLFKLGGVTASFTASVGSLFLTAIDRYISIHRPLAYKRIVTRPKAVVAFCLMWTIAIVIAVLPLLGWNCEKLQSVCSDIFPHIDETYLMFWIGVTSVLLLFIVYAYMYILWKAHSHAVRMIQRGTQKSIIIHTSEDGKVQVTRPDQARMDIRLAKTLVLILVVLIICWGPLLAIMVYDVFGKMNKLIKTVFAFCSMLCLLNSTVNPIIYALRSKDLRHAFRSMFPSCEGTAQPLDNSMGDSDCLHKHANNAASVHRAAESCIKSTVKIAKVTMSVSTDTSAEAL

Row | EC50 [1] [nM] | EC50 [2] [nM] | Structure (SMILES)
1 | 11 | > 10000 | NC(=O)c1cccc(S(=O)(=O)N2CCC(c3c4cc(C(c5ccc(Cl)cc5)c5ccc(Cl)cc5)ccc4nn3C3CC3)CC2)c1 [Compound 140, 3-(4-(5-(bis(4-chlorophenyl)methyl)-2-cyclopropyl-2H-indazol-3-yl)piperidin-1-ylsulfonyl)benzamide]
2 | 6120 | > 10000 | NC(=O)c1ccccc1C(=O)N1CCC(c2c3cc(C(c4ccc(Cl)cc4)c4ccc(Cl)cc4)ccc3nn2C2CC2)CC1 [Compound 141]
3 | 1010 | > 10000 | O=C(c1nnn[nH]1)N1CCC(c2n[nH]c3ccc(C(c4ccc(Cl)cc4)c4ccc(Cl)cc4)cc23)CC1 [Compound 143]
4 | 5480 | > 10000 | O=C(c1nnc[nH]1)N1CCC(c2n[nH]c3ccc(C(c4ccc(Cl)cc4)c4ccc(Cl)cc4)cc23)CC1 [Compound 144]
5 | 49 | > 10000 | O=C(c1c[nH]nn1)N1CCC(c2n[nH]c3ccc(C(c4ccc(Cl)cc4)c4ccc(Cl)cc4)cc23)CC1 [Compound 145]
6 | 7 | > 10000 | COc1cc(S(=O)(=O)N2CCC(c3c4cc(C(c5ccc(Cl)cc5)c5ccc(Cl)cc5)ccc4nn3C3CC3)CC2)ccc1C(N)=O [Compound 146, 4-(4-(5-(bis(4-chlorophenyl)methyl)-2-cyclopropyl-2H-indazol-3-yl)piperidin-1-ylsulfonyl)-2-methoxybenzamide]
7 | 23 | > 10000 | CNC(=O)c1ccc(S(=O)(=O)N2CCC(c3c4cc(C(c5ccc(Cl)cc5)c5ccc(Cl)cc5)ccc4nn3C3CC3)CC2)cc1OC [Compound 147, 4-(4-(5-(bis(4-chlorophenyl)methyl)-2-cyclopropyl-2H-indazol-3-yl)piperidin-1-ylsulfonyl)-2-methoxy-N-methylbenzamide]
8 | 7 | > 10000 | O=S(=O)(c1ccccc1O)N1CCC(c2c3cc(C(c4ccc(Cl)cc4)c4ccc(Cl)cc4)ccc3nn2C2CC2)CC1 [Compound 149, 2-(4-(5-(bis(4-chlorophenyl)methyl)-2-cyclopropyl-2H-indazol-3-yl)piperidin-1-ylsulfonyl)phenol]
9 | 7 | > 10000 | COc1cccc(S(=O)(=O)N2CCC(c3c4cc(C(c5ccc(Cl)cc5)c5ccc(Cl)cc5)ccc4nn3C3CC3)CC2)c1 [Compound 150, 5-(bis(4-chlorophenyl)methyl)-2-cyclopropyl-3-(1-(3-methoxyphenylsulfonyl)piperidin-4-yl)-2H-indazole]
10 | 17 | > 10000 | COc1ccc(S(=O)(=O)N2CCC(c3c4cc(C(c5ccc(Cl)cc5)c5ccc(Cl)cc5)ccc4nn3C3CC3)CC2)cc1 [Compound 152, 5-(bis(4-chlorophenyl)methyl)-2-cyclopropyl-3-(1-(4-methoxyphenylsulfonyl)piperidin-4-yl)-2H-indazole]
11 | 17 | > 10000 | NC(=O)c1ccc(S(=O)(=O)N2CCC(c3c4cc(C(c5ccc(Cl)cc5)c5ccc(Cl)cc5)ccc4nn3C3CC3)CC2)cc1Cl [Compound 153, 4-(4-(5-(bis(4-chlorophenyl)methyl)-2-cyclopropyl-2H-indazol-3-yl)piperidin-1-ylsulfonyl)-2-chlorobenzamide]
12 | 4 | > 10000 | CNC(=O)c1ccc(S(=O)(=O)N2CCC(c3c4cc(C(c5ccc(Cl)cc5)c5ccc(Cl)cc5)ccc4nn3C3CC3)CC2)cc1Cl [Compound 154, 4-(4-(5-(bis(4-chlorophenyl)methyl)-2-cyclopropyl-2H-indazol-3-yl)piperidin-1-ylsulfonyl)-2-chloro-N-methylbenzamide]
13 | 6 | > 10000 | CNC(=O)c1ccc(S(=O)(=O)N2CCC(c3c4cc(C(c5ccc(Cl)cc5)c5ccc(Cl)cc5)ccc4nn3C3CC3)CC2)cn1 [Compound 155, 5-(4-(5-(bis(4-chlorophenyl)methyl)-2-cyclopropyl-2H-indazol-3-yl)piperidin-1-ylsulfonyl)-N-methylpicolinamide]
14 | 1 | > 10000 | COc1ccccc1S(=O)(=O)N1CCC(c2c3cc(C(c4ccc(Cl)cc4)c4ccc(Cl)cc4)ccc3nn2C2CC2)CC1 [Compound 156, 5-(bis(4-chlorophenyl)methyl)-2-cyclopropyl-3-(1-(2-methoxyphenylsulfonyl)piperidin-4-yl)-2H-indazole]
15 | 3 | > 10000 | COc1ccc(S(=O)(=O)N2CCC(c3c4cc(C(c5ccc(Cl)cc5)c5ccc(Cl)cc5)ccc4nn3C3CC3)CC2)cc1C(N)=O [Compound 158, 5-(4-(5-(bis(4-chlorophenyl)methyl)-2-cyclopropyl-2H-indazol-3-yl)piperidin-1-ylsulfonyl)-2-methoxybenzamide]
16 | 3 | > 10000 | CNC(=O)c1cc(S(=O)(=O)N2CCC(c3c4cc(C(c5ccc(Cl)cc5)c5ccc(Cl)cc5)ccc4nn3C3CC3)CC2)ccc1OC [Compound 159, 5-(4-(5-(bis(4-chlorophenyl)methyl)-2-cyclopropyl-2H-indazol-3-yl)piperidin-1-ylsulfonyl)-2-methoxy-N-methylbenzamide]
17 | 5 | 4400 | O=C(O)c1ccc(S(=O)(=O)N2CCC(c3c4cc(C(c5ccc(Cl)cc5)c5ccc(Cl)cc5)ccc4nn3C3CC3)CC2)cn1 [Compound 160, 5-(4-(5-(bis(4-chlorophenyl)methyl)-2-cyclopropyl-2H-indazol-3-yl)piperidin-1-ylsulfonyl)picolinic acid]
18 | 4 | 950 | O=C(O)c1ccc(S(=O)(=O)N2CCC(c3c4cc(C(c5ccc(Cl)cc5)c5ccc(Cl)cc5)ccc4nn3C3CC3)CC2)cc1Cl [Compound 161, 4-(4-(5-(bis(4-chlorophenyl)methyl)-2-cyclopropyl-2H-indazol-3-yl)piperidin-1-ylsulfonyl)-2-chlorobenzoic acid]
19 | 4 | 5200 | O=C(O)c1cc(S(=O)(=O)N2CCC(c3c4cc(C(c5ccc(Cl)cc5)c5ccc(Cl)cc5)ccc4nn3C3CC3)CC2)ccc1F [Compound 162, 5-(4-(5-(bis(4-chlorophenyl)methyl)-2-cyclopropyl-2H-indazol-3-yl)piperidin-1-ylsulfonyl)-2-fluorobenzoic acid]
20 | 12 | > 10000 | NC(=O)c1cc(S(=O)(=O)N2CCC(c3c4cc(C(c5ccc(Cl)cc5)c5ccc(Cl)cc5)ccc4nn3C3CC3)CC2)ccc1F [Compound 163, 5-(4-(5-(bis(4-chlorophenyl)methyl)-2-cyclopropyl-2H-indazol-3-yl)piperidin-1-ylsulfonyl)-2-fluorobenzamide]
21 | 26 | > 10000 | COc1ccc(S(=O)(=O)N2CCC(c3c4cc(C(c5ccc(Cl)cc5)c5ccc(Cl)cc5)ccc4nn3C3CC3)CC2)cc1C(=O)O [Compound 164, 5-(4-(5-(bis(4-chlorophenyl)methyl)-2-cyclopropyl-2H-indazol-3-yl)piperidin-1-ylsulfonyl)-2-methoxybenzoic acid]
22 | 13 | > 10000 | NC(=O)c1ccc(S(=O)(=O)N2CCC(c3c4cc(C(c5ccc(Cl)cc5)c5ccc(Cl)cc5)ccc4nn3C3CC3)CC2)cn1 [Compound 165, 5-(4-(5-(bis(4-chlorophenyl)methyl)-2-cyclopropyl-2H-indazol-3-yl)piperidin-1-ylsulfonyl)picolinamide]
